Measurements: patent US8231869B2, “Recombinant plasmin for opthalmic indications” (priority 2005, dated 2012)
Where two headings read alike, the source gives them in different places. Where a SMILES comes first, the peptide text is derived from it. [ ]: non-standard residue; d: D form. The star is where a group is joined. pNA = O=[N+]([O-])c1ccc(N*)cc1

Assays:
[1] = target: kringle 1 (of human plasminogen); settings: literature value, et al., read-out: kringle 1 affinity for εACA (Kd), cited from earlier work
[2] = target: human plasmin (full-length; native human plasminogen SEQ ID NO: 4) (Homo sapiens, UniProt P00747); test: Amidolytic activity, steady-state kinetics with substrate S-2251; type: biochemical; settings: substrate S-2251, PBS buffer, pH 7.4, 25° C.
human plasmin (full-length; native human plasminogen SEQ ID NO: 4), sequence (P00747 97-580 partner limits assumed, one chain of several): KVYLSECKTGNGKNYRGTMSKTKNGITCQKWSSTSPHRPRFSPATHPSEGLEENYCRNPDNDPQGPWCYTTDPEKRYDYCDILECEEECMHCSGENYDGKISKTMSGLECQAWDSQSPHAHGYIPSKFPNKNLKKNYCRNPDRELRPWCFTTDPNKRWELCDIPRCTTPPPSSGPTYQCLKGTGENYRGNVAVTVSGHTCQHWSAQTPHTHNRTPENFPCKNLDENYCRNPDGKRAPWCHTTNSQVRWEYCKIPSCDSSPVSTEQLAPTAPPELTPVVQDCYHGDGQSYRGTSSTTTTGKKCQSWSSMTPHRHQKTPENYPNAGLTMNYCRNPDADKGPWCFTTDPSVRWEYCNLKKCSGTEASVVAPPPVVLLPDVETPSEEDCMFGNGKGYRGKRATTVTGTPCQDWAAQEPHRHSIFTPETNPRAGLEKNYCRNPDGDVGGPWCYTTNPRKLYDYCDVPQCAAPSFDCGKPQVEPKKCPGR

[3] = target: delta-plasmin (recombinant human plasmin deletion mutant, kringle 1-serine protease domain, deletion of K2-5; from delta-plasminogen SEQ ID NO: 2) (Homo sapiens, UniProt P00747, DELINS146-524/G536N/G539Q/K528E/L551R/N547D/P558L/Q559E/R549E/V538P/V557I); test: as above; type: biochemical; settings: substrate S-2251, PBS buffer, pH 7.4, 25° C.
delta-plasmin (recombinant human plasmin deletion mutant, kringle 1-serine protease domain, deletion of K2-5; from delta-plasminogen SEQ ID NO: 2), sequence (P00747 with tags, fused parts or gaps K528E/G536N/V538P/G539Q/N547D/R549E/L551R/V557I/P558L/Q559E limits assumed): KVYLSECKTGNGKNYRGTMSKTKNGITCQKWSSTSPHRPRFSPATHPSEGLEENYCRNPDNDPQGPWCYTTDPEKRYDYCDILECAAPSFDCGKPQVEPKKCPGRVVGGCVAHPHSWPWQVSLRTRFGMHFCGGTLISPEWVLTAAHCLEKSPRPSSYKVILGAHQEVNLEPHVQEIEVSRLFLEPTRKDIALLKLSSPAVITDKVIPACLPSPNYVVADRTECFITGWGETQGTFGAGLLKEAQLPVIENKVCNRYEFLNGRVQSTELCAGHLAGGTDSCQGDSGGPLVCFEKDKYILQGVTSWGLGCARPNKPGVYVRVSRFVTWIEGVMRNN

[4] = target: human micro-plasmin (plasmin lacking all five kringles) (Homo sapiens, UniProt P00747); test: as above; type: biochemical; settings: substrate S-2251, PBS buffer, pH 7.4, 25° C.
[5] = substrate: CC(C)C[C@H](NC(=O)[C@H](N)C(C)C)C(=O)N[C@@H](CCCCN)C(=O)Nc1ccc([N+](=O)[O-])cc1; test: purified protein, by the assay type; type: biochemical, human; settings: other: substrate S-2251, PBS buffer, pH 7.4, 25° C.

Question: With `NCCCCCC(=O)O` [εACA, ε-aminocaproic acid] as the molecule, how does the Kd ([1]; Douglas) read?
Answer: 13 µM

Question: And the Kd ([1]; Matsuka)?
Answer: 3.2 µM

Question: With `CC(C)C[C@H](NC(=O)[C@H](N)C(C)C)C(=O)N[C@@H](CCCCN)C(=O)Nc1ccc([N+](=O)[O-])cc1` [S-2251, D-Val-Leu-Lys-p-nitroanilide] (H-[dV]-Leu-Lys-pNA) as the molecule, how does the kcat [2] read?
Answer: 12.7 ± 0.383 s⁻¹

Question: What about the kcat ([3]; corrected for percent active sites (67%, PNPGB titration)) of the same molecule?
Answer: 12.6 ± 0.75 s⁻¹

Question: And the “kcat (for the preparation)” value ([3]; not corrected for percent active sites)?
Answer: 8.5 s⁻¹

Question: And the kcat [4]?
Answer: 13.2 ± 0.4 s⁻¹

B1: human plasmin (full-length; native human plasminogen SEQ ID NO: 4) (Homo sapiens) (protein)
chain: VVGGCVAHPHSWPWQVSLRTRFGMHFCGGTLISPEWVLTAAHCLEKSPRPSSYKVILGAHQEVNLEPHVQEIEVSRLFLEPTRKDIALLKLSSPAVITDKVIPACLPSPNYVVADRTECFITGWGETQGTFGAGLLKEAQLPVIENKVCNRYEFLNGRVQSTELCAGHLAGGTDSCQGDSGGPLVCFEKDKYILQGVTSWGLGCARPNKPGVYVRVSRFVTWIEGVMRNN
notes: The C-terminal light chain of plasmin (residues 562-791); The amino-terminal heavy chain of plasmin
Question: For B1, which Km [5] is on record?
Answer: 193 +/− 7 μM μM

Question: And the kcat [5]?
Answer: 760 +/− 23 min^−1 min^−1

B2: human mini-plasmin (plasmin fragment, domain composition K5-SP; mini-plasminogen residues Val443-Asn791) (Homo sapiens) (protein)
chain: B1 chain
notes: includes residues Val443-Asn791 and consists of the fifth kringle and the serine protease domain
Question: For B2, which Km [5] is on record?
Answer: 160 +/− 30 μM μM

Question: And the kcat [5]?
Answer: 770 +/− 70 min^−1 min^−1

B3: human micro-plasmin (plasmin lacking all five kringles) (Homo sapiens) (protein)
chain: B1 chain
notes: micro-plasmin (lacking all five kringles)
Question: What does the source list for B3?
Answer: Km [5]: 145 +/− 13 μM μM; kcat [5]: 795 +/− 24 min^−1 min^−1
